Where “and” joins values, the source holds several entries; their conditions need not be identical. Equal values may be shown once.
How the values were obtained:
[1] = tested on: Aedes albopictus; experiment: Olfactometer attraction test of compounds and compositions; type: in vivo
Description: The olfactometer was cleaned after each battery of tests.

[2] = tested on: Aedes aegypti; experiment: Olfactometer attraction test, treatment port vs control port, approximately 75 female mosquitoes; type: in vivo; conditions: for Response with Ace (%): base compound together with acetone; for Response with L-LA (%): compound 500 μL together with L-lactic acid; for Δ [(Resp with LA) − Resp] (%): difference between response with L-lactic acid and response alone; for Δ [(Resp with Ace) − Resp] (%): difference between response with acetone and response alone; for LA Avg response: average of n = 51 trials, 200 μL of 1 μg/μL methanolic solution; for Acetone Avg response: average of n = 4 trials, 500 μL from a 60 mm diameter glass petri dish
Description: (§1) The tests were conducted in an olfactometer (55 ft^3/min airflow, 80° F., 60% R.H.) as described by Posey, J. Med. Entomol., 35, 330-334 (1998); and LA is lactic acid. Mosquitoes were allowed to settle at least one hour prior to testing. The olfactometer was cleaned after each battery of tests. Each battery consisted of three tests, conducted at 08:30, 11:00 and 13:00 hours local time. Each of the three tests was conducted in a separate cage. The control consisted of identical sample delivery devices and conditions compared to that of the treatment side. Both the treatment and control ports were opened and closed simultaneously when inserting a new treatment/control.

[3] = tested on: Anopheles albimanus; experiment: Olfactometer attraction test of compounds and compositions; type: in vivo;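 note: olfactometer with a treatment port and a matching control port using identical delivery device and conditions, both opened together, three tests per battery, each run in its own cage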
[4] = tested on: Aedes aegypti; experiment: Formulation and verification of the best blend: one treatment vs another treatment in the olfactometer; conditions: 200 μg L-lactic acid (1w) vs. 200 μg L-lactic acid (1w) + Acetone (3B)
Description: as §1

[5] = base compound alone (mode of action similar to lactic acid)
[6] = compound alone, high dose of 500 μL
[7] = single compound, dose 500 (μL), 60 mL glass petri dish, Aedes aegypti attraction
[8] = no Base, Activator1 dose 500, 60 mL glass petri dish

`NCCCCN` [1,4-Diaminobutane] was tested, and the “% caught” value ([1]; single treatment, 1B (1 black cap)) was 6.8%.

`CC(=O)C(C)O` (centres unmarked) [3-hydroxy-2-butanone] was tested, and the “Response (%)” value [2, 5] was 9%, the “Response with Ace (%)” value [2] was 57% and the “Response with L-LA (%)” value [2] was 35%. The “Response (%)” value [2, 6] was 11%, the “Δ [(Resp with LA) − Resp] (%)” value [2] was 24% and the “Δ [(Resp with Ace) − Resp] (%)” value [2] was 48%. For the same molecule, the “% caught” value ([3]; single treatment, 500 μL) was 1.3%.

In the case of `CC(=O)C(C)C` [3-methyl-2-butanone], the “Response with L-LA (%)” value [2] is reported as 82%, the “Response (%)” value [2, 6] is reported as 8% and the “Δ [(Resp with LA) − Resp] (%)” value [2] is reported as 74%. The “% caught” value ([3]; single treatment, 500 μL) was 24.4%.

`CCC(C)C(C)=O` (centres unmarked) [3-methyl-2-pentanone] was tested, and the “Response with L-LA (%)” value [2] was 9%, the “Response (%)” value [2, 6] was 8% and the “Δ [(Resp with LA) − Resp] (%)” value [2] was 1%. For the same molecule, the “% caught” value ([3]; single treatment, 500 μL) was 17.1%.

With `CCCCCCC(=O)CC` [3-nonanone] the “Response with L-LA (%)” value [2] was 9%, the “Response (%)” value [2, 6] was 4% and the “Δ [(Resp with LA) − Resp] (%)” value [2] was 5%. The “Response Avg %” value [2, 7] was 4.0% and the “% caught” value ([3]; single treatment, 500 μL) was 15.8%.

`CCC(=O)CC` [3-pentanone] was tested, and the “Response with L-LA (%)” value [2] was 28%, the “Response (%)” value [2, 6] was 12% and the “Δ [(Resp with LA) − Resp] (%)” value [2] was 16%. The “% caught” value ([3]; single treatment, 500 μL) was 53.9%.

For `CCCC(=O)CCC` [4-heptanone], the “Response with L-LA (%)” value [2] was 32%, the “Response (%)” value [2, 6] was 12% and the “Δ [(Resp with LA) − Resp] (%)” value [2] was 20%. For the same molecule, the “% caught” value ([3]; single treatment, 500 μL) was 8.0%.

`CC(=O)CC(C)C` [4-methyl-2-pentanone] was tested, and the “Response with L-LA (%)” value [2] was 64%, the “Response (%)” value [2, 6] was 0% and the “Δ [(Resp with LA) − Resp] (%)” value [2] was 64%. For the same molecule, the “Response Avg %” value [2, 7] was 0.0% and the “% caught” value ([3]; single treatment, 500 μL) was 1.3%.

For `CCCCC(=O)CCCC` [5-nonanone], the “Response with L-LA (%)” value [2] was 47%, the “Response (%)” value [2, 6] was 14% and the “Δ [(Resp with LA) − Resp] (%)” value [2] was 33%. For the same molecule, the “% caught” value ([3]; single treatment, 500 μL) was 12.7%.

`CC(=O)CCC=C(C)C` [6-methyl-5-hepten-2-one] was tested, and the “Response with L-LA (%)” value [2] was 16%, the “Response (%)” value [2, 6] was 9% and the “Δ [(Resp with LA) − Resp] (%)” value [2] was 27%. For the same molecule, the “% caught” value ([3]; single treatment, 500 μL) was 26.0%.

With `C[C@H](O)C(=O)O` [L-lactic acid] the “LA Avg response” value [2] was 26%, the “LA Avg response” value ([2]; listed as LA) was “LA Avg: 1303/51 = 26%, n = 51 trials” and the “Response (%)” value [2, 5] was 26%. For the same molecule, the “Response with Ace (%)” value [2] was 88%, the “Δ [(Resp with Ace) − Resp] (%)” value [2] was 62% and the “L-lactic acid response (%)” value ([2]; single trials, 200 μL of a 1 μg/1 μL methanolic solution, dried 3 minutes in a petri dish, percentage caught of 75 female mosquitos) was 27%. For the same molecule, the “% mosquitoes trapped, treatment vs treatment” value [4] was 8%, the “% caught” value ([1]; single substance, 200 μg, listed as LA) was 11.7% and 8.3% and the “% caught” value ([3]; single substance, 400 μg dish) was 1.3%.

In the case of `CC(=O)C(=O)O` [Pyruvic Acid], the “Response Avg %” value ([2]; Base alone, dose 50 uL) is reported as 30.7% and the “% caught” value ([3]; single treatment, 500 μL) is reported as 1.4%.

For `CC(C)=O` [acetone], the “Acetone Avg response” value [2] was 51%, the “Acetone Avg response” value ([2]; listed as Acetone) was “Acetone Avg: 203/4 = 51%, n = 4 trials” and the “Response with L-LA (%), average in parentheses” value ([2]; compound 500 μL with L-lactic acid, average of the trials) was “(88%)”. For the same molecule, the “Response (%), average in parentheses” value ([2]; compound alone 500 μL, average of the trials) was “(51%)”, the “Δ [(Resp with LA) − Resp] (%)” value [2] was 37% and the “Acetone response (%)” value ([2]; single trials, 500 μL, plated on a small petri dish) was 51% and 48% and 53%. The “% caught” value ([1]; single substance, 500 μL Dish) was 9.1% and the “% caught” value ([3]; single treatment, 500 μL) was 29.6%.

`CC(=O)c1ccccc1` [acetophenone] was tested, and the “Response with L-LA (%)” value [2] was 46%, the “Response (%)” value [2, 6] was 9% and the “Δ [(Resp with LA) − Resp] (%)” value [2] was 37%. The “% caught” value ([3]; single treatment, 500 μL) was 7.9%.

In the case of `O=Cc1ccccc1` [benzaldehyde], the “Response with L-LA (%)” value [2] is reported as 21%, the “Response (%)” value [2, 6] is reported as 9% and the “Δ [(Resp with LA) − Resp] (%)” value [2] is reported as 12%. For the same molecule, the “% caught” value ([3]; single treatment, 500 μL) was 35.5%.

In the case of `N#Cc1ccccc1` [benzonitrile], the “Response with L-LA (%)” value [2] is reported as 48%, the “Response (%)” value [2, 6] is reported as 4% and the “Δ [(Resp with LA) − Resp] (%)” value [2] is reported as 42%. For the same molecule, the “Response Avg %” value [2, 7] was 4.0% and the “% caught” value ([3]; single treatment, 500 μL) was 3.8%.

In the case of `CCCC=O` [butyraldehyde], the “Response (%)” value [2, 5] is reported as 6%, the “Response with Ace (%)” value [2] is reported as 7% and the “Response with L-LA (%)” value [2] is reported as 7%. The “Response (%)” value [2, 6] was 6%, the “Δ [(Resp with LA) − Resp] (%)” value [2] was 1% and the “Δ [(Resp with Ace) − Resp] (%)” value [2] was 1%. The “% caught” value ([3]; single treatment, 500 μL) was 1.3%.

`S=C=S` [carbon disulfide] was tested, and the “Response with L-LA (%)” value [2] was 89%, the “Response (%)” value [2, 6] was 82% and the “Δ [(Resp with LA) − Resp] (%)” value [2] was 7%. The “% caught” value ([3]; single treatment, 500 μL) was 56.0%.

For `ClC(Cl)(Cl)Cl` [carbon tetrachloride], the “Response with L-LA (%)” value [2] was 92%, the “Response (%)” value [2, 6] was 92% and the “Δ [(Resp with LA) − Resp] (%)” value [2] was 0%. The “% caught” value ([3]; single treatment, 500 μL) was 74.0%.

With `ClC(Cl)Cl` [chloroform] the “Response with L-LA (%)” value [2] was 76%, the “Response (%)” value [2, 6] was 24% and the “Δ [(Resp with LA) − Resp] (%)” value [2] was 52%. For the same molecule, the “% caught” value ([3]; in vivo) was 78.7%.

In the case of `CCSSCC` [diethyl disulfide], the “Response with L-LA (%)” value [2] is reported as 49%, the “Response (%)” value [2, 6] is reported as 33% and the “Δ [(Resp with LA) − Resp] (%)” value [2] is reported as 16%. For the same molecule, the “% caught” value ([3]; single treatment, 500 μL) was 2.8%.

In the case of `CCSCC` [diethyl sulfide], the “Response with L-LA (%)” value [2] is reported as 54%, the “Response (%)” value [2, 6] is reported as 15% and the “Δ [(Resp with LA) − Resp] (%)” value [2] is reported as 39%. For the same molecule, the “% caught” value ([3]; single treatment, 500 μL) was 33.3%.

With `CSSC` [dimethyl disulfide] the “Response with L-LA (%)” value [2] was 86%, the “Response (%)” value [2, 6] was 36% and the “Δ [(Resp with LA) − Resp] (%)” value [2] was 50%. For the same molecule, the “% caught” value ([3]; single treatment, 500 μL) was 97.3%.

With `CSC` [dimethyl sulfide] the “Response with L-LA (%)” value [2] was 79%, the “Response (%)” value [2, 6] was 32% and the “Δ [(Resp with LA) − Resp] (%)” value [2] was 47%. The “% caught” value ([3]; single treatment, 500 μL) was 68.4%.

With `CSSSC` [dimethyl trisulfide] the “Response with L-LA (%)” value [2] was 67%, the “Response (%)” value [2, 6] was 21% and the “Δ [(Resp with LA) − Resp] (%)” value [2] was 46%. The “Response Avg %” value [2, 8] was 21.0% and the “% caught” value ([3]; single treatment, 500 μL) was 91.8%.

In the case of `C=CSCC` [ethyl vinyl sulfide], the “Response with L-LA (%)” value [2] is reported as 55%, the “Response (%)” value [2, 6] is reported as 18% and the “Δ [(Resp with LA) − Resp] (%)” value [2] is reported as 37%. For the same molecule, the “Response Avg %” value [2, 8] was 18.0% and the “% caught” value ([3]; single treatment, 500 μL) was 25.4%.

With `C=CC(=C)C` [isoprene] the “Response (%)” value [2, 5] was 12%, the “Response with Ace (%)” value [2] was 56% and the “Response with L-LA (%)” value [2] was 23%. The “Response (%)” value [2, 6] was 12%, the “Δ [(Resp with LA) − Resp] (%)” value [2] was 11% and the “Δ [(Resp with Ace) − Resp] (%)” value [2] was 44%. For the same molecule, the “% caught” value ([3]; single treatment, 500 μL) was 0.0%.

With `CCCSSC` [methyl propyl disulfide] the “Response with L-LA (%)” value [2] was 40%, the “Response (%)” value [2, 6] was 19% and the “Δ [(Resp with LA) − Resp] (%)” value [2] was 21%. The “% caught” value ([3]; single treatment, 500 μL) was 12.3%.

For `ClCCl` [methylene chloride], the “Response with L-LA (%)” value [2] was 7090%, the “Response (%)” value [2, 6] was 87% and the “Δ [(Resp with LA) − Resp] (%)” value [2] was −7%. For the same molecule, the “% caught” value ([3]; single treatment, 500 μL) was 75.7%.

With `Cc1ccc(O)cc1` [p-cresol] the “Response with L-LA (%)” value [2] was 32%, the “Response (%)” value [2, 6] was 5% and the “Δ [(Resp with LA) − Resp] (%)” value [2] was 27%. The “Response Avg %” value [2, 7] was 5.0% and the “% caught” value ([3]; single treatment, 500 μL) was 29.5%.

With `N#CCc1ccccc1` [phenylacetonitrile] the “Response with L-LA (%)” value [2] was 63%, the “Response (%)” value [2, 6] was 16% and the “Δ [(Resp with LA) − Resp] (%)” value [2] was 47%. The “% caught” value ([3]; single treatment, 500 μL) was 1.3%.

Reference: patent US7771713B2, “Chemical composition that attract arthropods” (priority 1999, dated 2010)
